US20250388605A1, “HETEROBIFUNCTIONAL COMPOUNDS AND METHODS OF TREATING DISEASE” (Halda Therapeutics OpCo, Inc., priority 2022, published 2025)

The compounds below were run on T47D cells (assay: Cellular Growth Inhibition Assay for T47D Cells (CellTiter-Glo)). Settings: 72 hours.
Type: cell-based, human
Description: Exemplary compounds were tested for ability to inhibit the proliferation of T47D cells. T47D cells are a commercially available human breast cancer cell line.
T47D cells were purchased from American Type Cell Culture (ATCC Cat #HTB-133) and then seeded on poly-D-lysine coated, black clear-bottom 384-well plates at 3000/well in 25 μL Dulbecco's Modified Eagle Medium (DMEM) supplemented with 10% w/w Fetal bovine serum (FBS), 0.2 units/mL recombinant human insulin (Gibco Cat #12585014), and 1% w/w Pen-Strep. Pen-Strep is a commercially available mixture of penicillin G and streptomycin, which is used in mammalian cell culture media to prevent bacterial contamination. Dulbecco's Modified Eagle Medium (DMEM) supplemented with 10% w/w fetal bovine serum (FBS), 0.2 units/mL recombinant human insulin, and 1% w/w Pen-Strep is herein referred to as Treatment Medium. Following seeding of cells in the plates, the plates were spun at 300×g for 30 seconds, then equilibrated to room temperature for 30 minutes, and then deposited in a humidified tissue culture incubator maintained at 37° C. with 5% CO2.
At 24 hours after seeding of the cells, dilutions of test compound were prepared in DMSO and dissolved in Treatment Medium, to achieve a final DMSO concentration of 0.5% w/w, thereby providing the Test Compound Solution. A 25 μL aliquot of the Test Compound Solution was added to cells in the well plates. An equal volume of a solution containing DMSO and Treatment Medium was used as a negative control. Following treatment of cells with Test Compound Solution or said equal volume of a solution containing DMSO and Treatment Medium, the plates were spun at 300×g for 30 seconds, and then left in an incubator for 72 hours.
At the end of the treatment duration, cell viability was quantified with CellTiter-Glo 2.0 reagent (Promega Cat #G9243). For this purpose, plates were equilibrated to room temperature for 30 minutes, and then 25 μL of CellTiter-Glo 2.0 reagent was added to cells in the plate wells. Plates were then agitated on a shaker for two minutes at 500 rpm and subsequently incubated at room temperature for 10 minutes. Following incubation, the plates were spun at 3000×g for 30 seconds, then sealed with an optical adhesive cover, and luminescence readings were measured with an EnVision Plate Reader (Perkin Elmer).
Data was normalized using zero luminescence for baseline. A four-parameter non-linear regression curve fit was applied to dose-response data in GraphPad Prism data analysis software to determine the half-maximal growth inhibitory concentration (GI50) for each test compound.
With `COc1cc(O[C@H]2C(C)(C)[C@H](NC(=O)c3cnc(N4CCC(CC5CN(c6ccc(Oc7ccc(C(C)(C)O)cc7-c7cn(C)c(=O)c8[nH]ccc78)cc6)C5)CC4)cn3)C2(C)C)ccc1C#N` [Compound I-384] the GI50 was under 500 nM. In the case of `Cn1cc(-c2ccccc2Oc2ccc(N3CC(CC4CCN(c5cnc(C(=O)N[C@H]6C(C)(C)[C@H](Oc7ccc(C#N)c(Cl)c7)C6(C)C)cn5)CC4)C3)cc2)c2cc[nH]c2c1=O` [Compound I-361], the GI50 is reported as under 500 nM. `Cn1cc(-c2cc(C(C)(C)O)ccc2Oc2ccc(N3CC(C4CCN(c5ccc(C(=O)N[C@H]6C(C)(C)[C@H](Oc7ccc(C#N)c(Cl)c7)C6(C)C)cn5)CC4)C3)cc2)c2cc[nH]c2c1=O` [Compound I-382] gave a GI50 of under 500 nM. With `COc1cc(O[C@H]2C(C)(C)[C@H](NC(=O)c3cnc(N4CCC(C5CN(c6ccc(Oc7ccc(C(C)(C)O)cc7-c7cn(C)c(=O)c8[nH]ccc78)cc6)C5)CC4)nc3)C2(C)C)ccc1C#N` [Compound I-385] the GI50 was under 500 nM. Work on `Cn1cc(-c2cc(C(C)(C)O)ccc2Oc2cccc(CC3CCN(c4ncc(C(=O)N[C@H]5C(C)(C)[C@H](Oc6ccc(C#N)c(Cl)c6)C5(C)C)cn4)CC3)c2)c2cc[nH]c2c1=O` [Compound I-374] yielded a GI50 of 500 to 1500 nM. Work on `Cn1cc(-c2cc(C(C)(C)O)ccc2Oc2ccc(N3CC(C4CCCN(c5ncc(C(=O)N[C@H]6C(C)(C)[C@H](Oc7ccc(C#N)c(Cl)c7)C6(C)C)cn5)CCC4)C3)cc2)c2cc[nH]c2c1=O` [Compound I-362] yielded a GI50 of under 500 nM. `Cn1cc(-c2cc(C(C)(C)O)ccc2Oc2ccccc2)c2cc(C(=O)NC3CC(CC4CCN(c5ccc(C(=O)N[C@H]6C(C)(C)[C@H](Oc7ccc(C#N)c(Cl)c7)C6(C)C)nc5)CC4)C3)[nH]c2c1=O` (some centres unmarked) [Compound I-378] was tested, and the GI50 was over 3000 nM. `Cn1cc(-c2ccccc2Oc2ccc(N3CC(C4CCN(c5ccc(C(=O)N[C@H]6C(C)(C)[C@H](Oc7ccc(C#N)c(Cl)c7)C6(C)C)nc5)CC4)C3)cc2)c2cc[nH]c2c1=O` [Compound I-386] gave a GI50 of under 500 nM. For `Cn1cc(-c2ccccc2Oc2ccc(N3CC(CC4CN(c5ncc(C(=O)N[C@H]6C(C)(C)[C@H](Oc7ccc(C#N)c(Cl)c7)C6(C)C)cn5)C4)C3)cc2)c2cc[nH]c2c1=O` [Compound I-363], the GI50 was under 500 nM. Work on `Cn1cc(-c2cc(C(C)(C)O)ccc2Oc2ccc(N3CC(C4CCN(c5cnc(C(=O)N[C@H]6C(C)(C)[C@H](Oc7ccc(C#N)c(Cl)c7)C6(C)C)cn5)CC4)C3)cc2)c2cc[nH]c2c1=O` [Compound I-381] yielded a GI50 of 500 to 1500 nM. For `Cn1cc(-c2cc(C(C)(C)O)ccc2Oc2ccc(N3CC(C4CCN(c5ccc(C(=O)N[C@H]6C(C)(C)[C@H](Oc7ccc(C#N)c(Cl)c7)C6(C)C)nc5)CC4)C3)cc2)c2cc[nH]c2c1=O` [Compound I-388], the GI50 was under 500 nM. With `Cn1cc(-c2ccccc2Oc2ccc(N3CC(C4CCN(c5ncc(C(=O)N[C@H]6C(C)(C)[C@H](Oc7ccc(C#N)c(Cl)c7)C6(C)C)cn5)CC4)C3)cc2)c2cc[nH]c2c1=O` [Compound I-360] the GI50 was 500 to 1500 nM. Compound `Cn1cc(-c2cc(C(C)(C)O)ccc2Oc2cccc(N3CC(CC4CCN(c5ncc(C(=O)N[C@H]6C(C)(C)[C@H](Oc7ccc(C#N)c(Cl)c7)C6(C)C)cn5)CC4)C3)c2)c2cc[nH]c2c1=O` [Compound I-376] has a GI50 of under 500 nM. In the case of `COc1cc(Oc2ccc(C(C)(C)O)cc2-c2cn(C)c(=O)c3[nH]ccc23)ccc1N1CC(CC2CCN(c3cnc(C(=O)N[C@H]4C(C)(C)[C@H](Oc5ccc(C#N)c(Cl)c5)C4(C)C)cn3)CC2)C1` [Compound I-394], the GI50 is reported as under 500 nM. `Cn1cc(-c2ccccc2Oc2ccc(N3CC(C4CCN(c5cnc(C(=O)N[C@H]6C(C)(C)[C@H](Oc7ccc(C#N)c(Cl)c7)C6(C)C)cn5)CC4)C3)cc2)c2cc[nH]c2c1=O` [Compound I-365] was tested, and the GI50 was under 500 nM.

Same assay, conditions: Homo sapiens, 72 hours
`Cn1cc(-c2cc(C(C)(C)O)ccc2Oc2ccc(CC3CCN(c4cnc(C(=O)N[C@H]5C(C)(C)[C@H](Oc6ccc(C#N)c(Cl)c6)C5(C)C)cn4)CC3)cc2)c2cc[nH]c2c1=O` [Compound I-370] was tested, and the GI50 was under 500 nM. In the case of `Cn1cc(-c2cc(C(C)(C)O)ccc2Oc2ccc(OC3CC4(C3)CC3(CCN(c5ccc(C(=O)N[C@H]6C(C)(C)[C@H](Oc7ccc(C#N)c(Cl)c7)C6(C)C)nc5)CC3)C4)cc2)c2cc[nH]c2c1=O` [Compound I-367], the GI50 is reported as over 3000 nM. In the case of `Cn1cc(-c2cc(C(C)(C)O)ccc2Oc2ccc(C3CC(CC4CCN(c5ncc(C(=O)N[C@H]6C(C)(C)[C@H](Oc7ccc(C#N)c(Cl)c7)C6(C)C)cn5)CC4)C3)cc2)c2cc[nH]c2c1=O` (some centres unmarked) [Compound I-354], the GI50 is reported as under 500 nM. Compound `Cn1cc(-c2cc(C(C)(C)O)ccc2Oc2ccccc2N2CC(CC3CCN(c4ncc(C(=O)NC5C(C)(C)C(Oc6ccc(C#N)c(Cl)c6)C5(C)C)cn4)CC3)C2)c2cc[nH]c2c1=O` (centres unmarked) [Compound I-387, N-[3-(3-chloro-4-cyano-phenoxy)-2,2,4,4-tetramethyl-cyclobutyl]-2-[4-[[1-[2-[4-(1-hydroxy-1-methyl-ethyl)-2-(6-methyl-7-oxo-1H-pyrrolo[2,3-c]pyridin-4-yl)phenoxy]phenyl]azetidin-3-yl]methyl]-1-piperidyl]pyrimidine-5-carboxamide] has a GI50 of over 3000 nM. `COc1cc(N2CC(CC3CCN(c4cnc(C(=O)NC5C(C)(C)C(Oc6ccc(C#N)c(Cl)c6)C5(C)C)cn4)CC3)C2)ccc1Oc1ccc(C(C)(C)O)cc1-c1cn(C)c(=O)c2[nH]ccc12` (centres unmarked) [Compound I-392, N-[3-(3-chloro-4-cyano-phenoxy)-2,2,4,4-tetramethyl-cyclobutyl]-5-[4-[[1-[4-[4-(1-hydroxy-1-methyl-ethyl)-2-(6-methyl-7-oxo-1H-pyrrolo[2,3-c]pyridin-4-yl)phenoxy]-3-methoxy-phenyl]azetidin-3-yl]methyl]-1-piperidyl]pyrazine-2-carboxamide] was tested, and the GI50 was under 500 nM. In the case of `Cn1cc(-c2ccccc2Oc2ccc(OCC3CCN(c4ncc(C(=O)NC5C(C)(C)C(Oc6ccc(C#N)c(Cl)c6)C5(C)C)cn4)CC3)cc2)c2cc[nH]c2c1=O` (centres unmarked) [Compound I-356, N-[3-(3-chloro-4-cyano-phenoxy)-2,2,4,4-tetramethyl-cyclobutyl]-2-[4-[[4-[2-(6-methyl-7-oxo-1H-pyrrolo[2,3-c]pyridin-4-yl)phenoxy]phenoxy]methyl]-1-piperidyl]pyrimidine-5-carboxamide], the GI50 is reported as under 500 nM. `Cn1cc(-c2cc(C(C)(C)O)ccc2Oc2ccc(N3CC(CC4CCN(c5cnc(C(=O)N[C@H]6C(C)(C)[C@H](Oc7ccc(C#N)c(Cl)c7)C6(C)C)cn5)CC4)C3)cc2Cl)c2cc[nH]c2c1=O` [Compound I-393] was tested, and the GI50 was under 500 nM. `Cn1cc(-c2ccccc2Oc2ccc(OC3CC4(C3)CC3(CCN(c5ncc(C(=O)N[C@H]6C(C)(C)[C@H](Oc7ccc(C#N)c(Cl)c7)C6(C)C)cn5)CC3)C4)cc2)c2cc[nH]c2c1=O` [Compound I-358] showed a GI50 of over 3000 nM. `Cn1cc(-c2cc(C(C)(C)O)ccc2Oc2ccc(OC3CC4(C3)CC3(CCN(c5cnc(C(=O)N[C@H]6C(C)(C)[C@H](Oc7ccc(C#N)c(Cl)c7)C6(C)C)cn5)CC3)C4)cc2)c2cc[nH]c2c1=O` [Compound I-366] was tested, and the GI50 was over 3000 nM. `Cn1cc(-c2cc(C(C)(C)O)ccc2Oc2ccc(CC3CCN(c4ccc(C(=O)N[C@H]5C(C)(C)[C@H](Oc6ccc(C#N)c(Cl)c6)C5(C)C)nc4)CC3)cc2)c2cc[nH]c2c1=O` [Compound I-368] was tested, and the GI50 was under 500 nM. For `Cn1cc(-c2cc(C(C)(C)O)ccc2Oc2ccccc2)c2cc(C(=O)NC3CC(CC4CCN(c5ccc(C(=O)NC6C(C)(C)C(Oc7ccc(C#N)c(Cl)c7)C6(C)C)nc5)CC4)C3)[nH]c2c1=O` (centres unmarked) [Compound I-377, N-[3-[[1-[6-[[3-(3-chloro-4-cyano-phenoxy)-2,2,4,4-tetramethyl-cyclobutyl]carbamoyl]-3-pyridyl]-4-piperidyl]methyl]cyclobutyl]-4-[5-(1-hydroxy-1-methyl-ethyl)-2-phenoxy-phenyl]-6-methyl-7-oxo-1H-pyrrolo[2,3-c]pyridine-2-carboxamide], the GI50 was over 3000 nM. With `Cc1cc(Oc2ccc(C(C)(C)O)cc2-c2cn(C)c(=O)c3[nH]ccc23)cc(C)c1N1CC(CC2CCN(c3cnc(C(=O)N[C@H]4C(C)(C)[C@H](Oc5ccc(C#N)c(Cl)c5)C4(C)C)cn3)CC2)C1` [Compound I-391, N-[3-(3-chloro-4-cyano-phenoxy)-2,2,4,4-tetramethyl-cyclobutyl]-5-[4-[[1-[4-[4-(1-hydroxy-1-methyl-ethyl)-2-(6-methyl-7-oxo-1H-pyrrolo[2,3-c]pyridin-4-yl)phenoxy]-2,6-dimethyl-phenyl]azetidin-3-yl]methyl]-1-piperidyl]pyrazine-2-carboxamide] the GI50 was under 500 nM. `Cn1cc(-c2cc(C(C)(C)O)ccc2Oc2ccc(CC3CC4(CCN(c5ccc(C(=O)N[C@H]6C(C)(C)[C@H](Oc7ccc(C#N)c(Cl)c7)C6(C)C)nc5)CC4)C3)cc2)c2cc[nH]c2c1=O` [Compound I-379] was tested, and the GI50 was 1500 to 3000 nM. Compound `Cn1cc(-c2cc(C(C)(C)O)ccc2Oc2ccc(CC3CC4(CCN(c5cnc(C(=O)N[C@H]6C(C)(C)[C@H](Oc7ccc(C#N)c(Cl)c7)C6(C)C)cn5)CC4)C3)cc2)c2cc[nH]c2c1=O` [Compound I-375] has a GI50 of over 3000 nM.
